Results published in US10266497B2 (ABIDE THERAPEUTICS, INC., priority 2017, dated 2019).

Columns and labels:
[1] = target: T1, MAGL (Homo sapiens, UniProt Q99685); assay: In vitro competitive activity-based protein profiling, MAGL, human; details: for inhibition at 1 µM: read-out: MAGL % inh. 1 μM (human)
T1 sequence (Q99685 1-303): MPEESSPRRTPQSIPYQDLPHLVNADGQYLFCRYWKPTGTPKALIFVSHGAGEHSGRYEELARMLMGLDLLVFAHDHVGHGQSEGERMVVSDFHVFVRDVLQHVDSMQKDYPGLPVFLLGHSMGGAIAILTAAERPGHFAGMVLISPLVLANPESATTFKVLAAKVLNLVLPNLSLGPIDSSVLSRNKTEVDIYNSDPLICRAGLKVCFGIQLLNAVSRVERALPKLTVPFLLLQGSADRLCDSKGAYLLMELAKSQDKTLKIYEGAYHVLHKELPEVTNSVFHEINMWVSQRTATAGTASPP

[2] = target: T2, MAGL (Mus musculus, UniProt O35678); assay: In vitro competitive activity-based protein profiling, MAGL, mouse; details: read-out: MAGL % inh. 1 μM (mouse)
T2 sequence (O35678 1-303): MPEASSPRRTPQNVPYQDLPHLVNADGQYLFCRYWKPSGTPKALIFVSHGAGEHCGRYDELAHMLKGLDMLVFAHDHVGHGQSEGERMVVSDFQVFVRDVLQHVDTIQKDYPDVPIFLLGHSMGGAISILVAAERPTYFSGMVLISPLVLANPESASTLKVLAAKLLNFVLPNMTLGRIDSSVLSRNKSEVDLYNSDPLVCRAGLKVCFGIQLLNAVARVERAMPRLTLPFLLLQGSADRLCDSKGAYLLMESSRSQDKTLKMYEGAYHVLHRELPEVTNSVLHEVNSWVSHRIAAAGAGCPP

[3] = target: T3, FAAH (Homo sapiens, UniProt O00519); assay: In vitro competitive activity-based protein profiling, FAAH, human; details: for inhibition at 1 µM: read-out: FAAH % inh. 1 μM (human)
T3 sequence (O00519 1-579): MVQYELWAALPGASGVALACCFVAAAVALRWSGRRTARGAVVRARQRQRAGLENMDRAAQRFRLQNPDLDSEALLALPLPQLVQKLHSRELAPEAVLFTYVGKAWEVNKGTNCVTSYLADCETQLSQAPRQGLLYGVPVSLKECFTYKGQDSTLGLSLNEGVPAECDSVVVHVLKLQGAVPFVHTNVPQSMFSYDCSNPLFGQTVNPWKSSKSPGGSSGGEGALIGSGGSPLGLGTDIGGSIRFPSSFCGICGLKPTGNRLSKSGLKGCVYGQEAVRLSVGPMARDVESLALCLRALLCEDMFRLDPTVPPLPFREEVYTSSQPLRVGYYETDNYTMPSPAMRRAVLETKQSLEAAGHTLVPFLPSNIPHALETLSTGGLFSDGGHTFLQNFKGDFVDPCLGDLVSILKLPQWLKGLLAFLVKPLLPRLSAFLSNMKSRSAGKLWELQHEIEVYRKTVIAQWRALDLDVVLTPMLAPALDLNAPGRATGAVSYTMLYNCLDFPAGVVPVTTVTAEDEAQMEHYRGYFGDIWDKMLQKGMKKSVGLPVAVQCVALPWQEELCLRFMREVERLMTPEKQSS

[4] = target: T4, FAAH (Mus musculus, UniProt O08914); assay: In vitro competitive activity-based protein profiling, FAAH, mouse; details: read-out: FAAH % inh. 1 μM (mouse)
T4 sequence (O08914 1-579): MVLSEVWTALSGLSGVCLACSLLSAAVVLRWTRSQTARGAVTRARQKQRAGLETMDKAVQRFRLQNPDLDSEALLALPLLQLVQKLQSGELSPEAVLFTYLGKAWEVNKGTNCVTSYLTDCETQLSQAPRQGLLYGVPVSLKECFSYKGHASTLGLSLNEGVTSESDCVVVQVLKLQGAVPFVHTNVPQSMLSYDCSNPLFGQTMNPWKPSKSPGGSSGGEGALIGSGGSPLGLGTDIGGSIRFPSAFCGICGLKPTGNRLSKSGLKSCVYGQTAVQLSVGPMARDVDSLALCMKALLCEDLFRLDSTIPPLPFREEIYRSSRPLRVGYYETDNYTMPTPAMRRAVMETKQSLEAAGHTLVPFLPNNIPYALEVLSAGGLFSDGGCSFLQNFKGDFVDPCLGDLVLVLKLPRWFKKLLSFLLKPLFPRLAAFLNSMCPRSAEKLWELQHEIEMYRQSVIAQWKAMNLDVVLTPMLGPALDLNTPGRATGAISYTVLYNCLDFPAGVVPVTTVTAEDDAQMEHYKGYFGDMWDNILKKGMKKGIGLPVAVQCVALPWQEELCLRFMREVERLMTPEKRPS

SMILES | inhibition at 1 µM [1] | inhibition at 1 µM [2] | inhibition at 1 µM [3] | inhibition at 1 µM [4] | inhibition at 10 µM ([1]; read-out: MAGL % inh. (human) at 10 uM) | IC50 [3] | IC50 [1]
O=C(O)c1ccn(C(=O)N2CCC3(CCCN3Cc3ccc(C(F)(F)F)cc3-c3nnn[nH]3)CC2)n1 [Example 126, 1-(1-(2-(1H-tetrazol-5-yl)-4-(trifluoromethyl)benzyl)-1,8-diazaspiro[4.5]decane-8-carbonyl)-1H-pyrazole-3-carboxylic acid] | 25 to 50% | 0 to 25% | 0 to 25% | 0 to 25% | – | – | –
O=C(O)c1ccn(C(=O)N2CCC3(CCN(Cc4ccc(N5CCCC5)c(Cl)c4)C3)CC2)n1 [Example 168, 1-(2-(3-chloro-4-(pyrrolidin-1-yl)benzyl)-2,8-diazaspiro[4.5]decane-8-carbonyl)-1H-pyrazole-3-carboxylic acid] | 50 to 75% | 0 to 25% | 0 to 25% | 0 to 25% | – | – | –
O=C(O)c1ccn(C(=O)N2CCN(Cc3nc4ccccc4s3)CC2)n1 [Example 189, 1-(4-(benzo[d]thiazol-2-ylmethyl)piperazine-1-carbonyl)-1H-pyrazole-3-carboxylic acid] | > 75% | > 75% | 0 to 25% | 0 to 25% | – | – | –
CN(Cc1cccc(-c2ccccc2)c1)[C@@H]1C[C@@H]2CN(C(=O)n3ccc(C(=O)O)n3)C[C@@H]2C1 [Example 163, 1-(cis-5-(([1,1′-biphenyl]-3-ylmethyl)(methyl)amino)octahydro-cyclopenta[c]pyrrole-2-carbonyl)-1H-pyrazole-3-carboxylic acid] | 0 to 25% | 0 to 25% | 25 to 50% | 0 to 25% | – | – | –
O=C(O)c1nn(C(=O)N2CCN(Cc3ccc(-c4nnn[nH]4)cc3C(F)(F)F)CC2)cc1Cl [Example 142, 1-(4-(4-(1H-tetrazol-5-yl)-2-(trifluoromethyl)benzyl)piperazine-1-carbonyl)-4-chloro-1H-pyrazole-3-carboxylic acid] | – | 0 to 25% | 0 to 25% | 0 to 25% | > 75% | – | –
O=C(O)c1ccn(C(=O)N2C[C@H]3C[C@H](OCc4cc(F)cc(Cl)c4)C[C@H]3C2)n1 [Example 53, 1-(trans-5-((3-chloro-5-fluorobenzyl)oxy)octahydrocyclopenta [c]pyrrole-2-carbonyl)-1H-pyrazole-3-carboxylic acid] | > 75% | > 75% | > 75% | > 75% | – | 0.1 to 1 µM | –
O=C(O)c1ccn(C(=O)N2CCN(Cc3ccc(N4CCCC4)cc3C(F)(F)F)CC2)n1 [Example 167, 1-(4-(4-(pyrrolidin-1-yl)-2-(trifluoromethyl)benzyl)piperazine-1-carbonyl)-1H-pyrazole-3-carboxylic acid] | > 75% | > 75% | 25 to 50% | 0 to 25% | – | 1 to 10 µM | –
O=C(O)c1ccn(C(=O)N2CCN(Cc3cccc(Oc4ncccn4)c3)CC2)n1 [Example 62, 1-(4-(3-(pyrimidin-2-yloxy)benzyl)piper-azine-1-carbonyl)-1H-pyrazole-3-carboxylic acid] | 50 to 75% | 0 to 25% | 0 to 25% | 0 to 25% | – | – | –
O=C(O)c1ccn(C(=O)N2CCC3(CCN(Cc4ccc(Cl)cc4N4CCCC4)C3)CC2)n1 [Example 171, 1-(2-(4-chloro-2-(pyrrolidin-1-yl)benzyl)-2,8-diazaspiro[4.5]decane-8-carbonyl)-1H-pyrazole-3-carboxylic acid] | > 75% | > 75% | 0 to 25% | 0 to 25% | – | 1 to 10 µM | 0.1 to 1 µM
O=C(O)c1ccn(C(=O)N2CCN(Cc3ccc(C(F)(F)F)c(-c4nnco4)c3)CC2)n1 [Example 9, 1-(4-(3-(1,3,4-oxadiazol-2-yl)-4-(trifluoromethyl)benzyl)piperazine-1-carbonyl)-1H-pyrazole-3-carboxylic Acid] | > 75% | > 75% | 0 to 25% | 0 to 25% | – | – | –
O=C(O)c1ccn(C(=O)N2CCN(Cc3ccc(Oc4ccc(Cl)cc4)cc3)CC2)n1 [Example 45, 1-(4-(4-(4-chlorophenoxy)benzyl)piperazine-1-carbonyl)-1H-pyrazole-3-carboxylic acid] | > 75% | > 75% | > 75% | > 75% | – | 0.1 to 1 µM | –
NC(=O)c1ccn(C(=O)N2CC3CN(Cc4ccc(Cl)cc4)CC3C2)n1 (centres unmarked) [Example 203, 1-(5-(4-chlorobenzyl)octa-hydropyrrolo[3,4-c]pyrrole-2-carbonyl)-1H-pyrazole-3-carboxamide] | > 75% | > 75% | > 75% | > 75% | – | – | –
O=C(O)c1ccn(C(=O)N2CCN(Cc3cccc(Oc4ccc(C(F)(F)F)cn4)c3)CC2)n1 [Example 61, 1-(4-(3-((5-(trifluoromethyl)pyridin-2-yl)oxy)benzyl)piper-azine-1-carbonyl)-1H-pyrazole-3-carboxylic acid] | > 75% | > 75% | > 75% | > 75% | – | 0.1 to 1 µM | –
O=C(O)c1nn(C(=O)N2CC3CN(Cc4cc(N5CCCC5)cc(C(F)(F)F)c4)CC3C2)cc1Cl (centres unmarked) [Example 151, 4-chloro-1-(5-(3-(pyrrolidin-1-yl)-5-(trifluoromethyl)benzyl)octahydro-pyrrolo[3,4-c]pyrrole-2-carbonyl)-1H-pyrazole-3-carboxylic acid] | > 75% | > 75% | 25 to 50% | 25 to 50% | – | – | –
O=C(O)c1ccn(C(=O)N2CCN(Cc3ccc(Cl)cc3-c3nnco3)CC2)n1 [Example 67, 1-(4-(4-chloro-2-(1,3,4-oxadiazol-2-yl)benzyl)piperazine-1-carbonyl)-1H-pyrazole-3-carboxylic acid] | > 75% | > 75% | 0 to 25% | 0 to 25% | – | – | –
CN(Cc1cccc(C(F)(F)F)c1)C1CCN(C(=O)n2ccc(C(N)=O)n2)CC1 [Example 176, 1-(4-(methyl(3-(trifluoromethyl)benzyl)amino)piper-idine-1-carbonyl)-1H-pyrazole-3-carboxamide] | > 75% | > 75% | > 75% | > 75% | – | – | –
NC(=O)c1ccc(CN2CCN(C(=O)n3ccc(C(=O)O)n3)CC2)cc1C(F)(F)F [Example 14, 1-(4-(4-Carbamoyl-3-(trifluoromethyl)benzyl)piperazine-1-carbonyl)-1H-pyrazole-3-carboxylic Acid] | 25 to 50% | 25 to 50% | 0 to 25% | 0 to 25% | – | – | –
